This experiment relates to AR and PSA. Put plainly: NAC pretreatment and down-regulation of AR and PSA in LAPC-4 cells. It is filed as cell-based. To be noted: 10 mmol/L NAC 24 h pretreatment.

Take `CC(=O)N[C@@H](CS)C(=O)O` [NAC, N-acetylcysteine]: the “effect of NAC on methylseleninic acid (MSeA)-induced down-regulation of the AR and PSA” value (then 10 μmol/L MSeA 24 h) is “does not inhibit”. Under “then selenite 24 h”, the “effect of NAC on selenite-induced down-regulation of the AR and PSA” value is on record as “inhibits”.

Source of the values: patent US20210046106A1, “METHODS OF TREATING CANCER WITH ANDROGEN DEPRIVATION THERAPY IN COMBINATION WITH AN INHIBITOR OF THE SP1 TRANSCRIPTION FACTOR” (The Board of Trustees of the Leland Stanford Junior …, priority 2019, published 2021).
